Experimental data taken from PMC12235690 (Journal of Proteome Research, 2025).
Values belong to the compound of their own block, whether it stands above or below them. Numbered stars: 1 amine (or outer) side, 2 acyl side, 3 side chain; on linkers, the order of the positions; unused ones are H or OH. Square brackets hold non-standard residues; d marks the D form. Side chains are listed from the residue outwards. Peptide text beside a SMILES is read from it. * marks the point of attachment. Biotin = O=C1N[C@H]2[C@H](CS[C@H]2CCCCC(=O)*)N1; γGlu = O=C(O)[C@H](CCC(=O)[*:2])N[*:1]; Palmitoyl = CCCCCCCCCCCCCCCC(=O)*; PhLac = O=C(O)[C@@H](O)Cc1ccccc1; PEG4 = NCCOCCOCCOCCOCCC(=O)O

Tests used:
GCGR [1] = biological target: T1, GCGR (Homo sapiens, UniProt P47871); test: GCGR cAMP accumulation, antagonist mode, native and biotinylated peptides; assay type: cell-based; settings: HTRF, HEK Freestyle cells, arithmetic mean, n=3
Experimental: HEK Freestyle cells (ThermoFisher Scientific, #R79007) seeded in suspension at a density of 250,000 cells/mL were transiently transfected with indicated receptor constructs using Fugene-6 reagent (Promega, #E2691). After 48 h, cells were pelleted and resuspended in assay buffer (DMEM, #Gibco 31053) containing 0.1% casein. Cells were then added at 1000 cells/well to 384-well white microplates (Costar, #3570) containing a range of agonist concentrations prepared via acoustic direct dilution in assay buffer containing 250 μM IBMX (total reaction volume of 20 μL), followed by incubation at 37 °C for 30 min. Cells were then lysed via sequential addition of d2-labeled cAMP competitor conjugate and cryptate-conjugated detection antibody (Revity, #62AM4PEC), then incubated for 1 h at room temperature with subsequent quantification of time-resolved fluorescence resonance energy transfer using an Envision plate reader and calibration to external synthetic cAMP standards in a parallel processed plate. Normalized percent values were fit to the 4-parameter logistic model using GraphPad Prism 10.1.2.
Figure S1. Enrichment of GCGR using biotinylated peptide ligands and bottom-up proteomic analysis of C-tail phosphorylation. A-B) GCGR cAMP accumulation was measured in (A) agonist mode and (B) antagonist mode using native and biotinylated peptides. Summary statistics for pharmacological […]

GCGR [2] = biological target: T1, GCGR; test: GCGR cAMP accumulation, agonist mode, native and biotinylated peptides; assay type: cell-based; settings: read-out: cAMP Emax Mean
[3] = biological target: GLP-1R 3S→A (S442A/S444A/S445A) (Homo sapiens, UniProt P43220, S442A/S444A/S445A); test: cell-based; settings: read-out: cAMP Emax Mean
GLP-1R S444A = GLP-1R S444A (Homo sapiens, UniProt P43220, S444A); test: cell-based; settings: read-out: cAMP Emax Mean
GLP-1R S442A = GLP-1R S442A (Homo sapiens, UniProt P43220, S442A); test: cell-based; settings: read-out: cAMP Emax Mean
GLP-1R_TEV_FLAG C-tail = GLP-1R_TEV_FLAG C-tail (Homo sapiens, UniProt P43220); settings: WT GLP-1R_TEV C-tail; 1 μM ligand, 10 min 37 °C, FreeStyle 293 cells, LC-PRM, relative to DMSO
GLP-1R WT = GLP-1R WT (Homo sapiens, UniProt P43220); test: cell-based; settings: read-out: cAMP Emax Mean
Experimental: (§1) Transfection for pharmacology experiments was conducted as previously described using FuGENE 6 (Promega, #E2691). […] Subsequently, 240 μL of room-temperature FuGENE 6 (Promega, #E2691) was added to the medium, mixed by inversion, and allowed to rest at room temperature for 5 min. 40 μg of the plasmid of interest was added to the FuGENE 6 containing medium, mixed by inversion, and allowed to rest at room temperature for 15–20 min.
(§2) HEK Freestyle cells (ThermoFisher Scientific, #R79007) seeded in suspension at a density of 250,000 cells/mL were transiently transfected with indicated receptor constructs using Fugene-6 reagent (Promega, #E2691). […] Cells were then lysed via sequential addition of d2-labeled cAMP competitor conjugate and cryptate-conjugated detection antibody (Revity, #62AM4PEC), then incubated for 1 h at room temperature with subsequent quantification of time-resolved fluorescence resonance energy transfer using an Envision plate reader and calibration to external synthetic cAMP standards in a parallel processed plate.

GLP-1R S445A = GLP-1R S445A (Homo sapiens, UniProt P43220, S445A); test: cell-based; settings: read-out: cAMP Emax Mean
Experimental: as §1, §2

T1 sequence (P47871 26-477): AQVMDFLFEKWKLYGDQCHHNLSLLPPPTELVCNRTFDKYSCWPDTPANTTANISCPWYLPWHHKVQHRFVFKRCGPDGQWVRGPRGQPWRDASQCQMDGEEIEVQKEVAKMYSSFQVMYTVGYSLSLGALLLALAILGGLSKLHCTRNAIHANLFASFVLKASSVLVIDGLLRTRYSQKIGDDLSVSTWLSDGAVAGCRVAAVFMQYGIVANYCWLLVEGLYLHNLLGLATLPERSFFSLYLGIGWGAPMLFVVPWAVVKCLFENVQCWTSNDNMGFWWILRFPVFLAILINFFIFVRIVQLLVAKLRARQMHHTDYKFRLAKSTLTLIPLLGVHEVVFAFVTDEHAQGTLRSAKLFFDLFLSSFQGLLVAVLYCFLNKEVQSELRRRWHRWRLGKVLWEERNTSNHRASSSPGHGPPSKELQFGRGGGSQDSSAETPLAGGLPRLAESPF
Sequence of GLP-1R S444A (P43220 24-463 S444A): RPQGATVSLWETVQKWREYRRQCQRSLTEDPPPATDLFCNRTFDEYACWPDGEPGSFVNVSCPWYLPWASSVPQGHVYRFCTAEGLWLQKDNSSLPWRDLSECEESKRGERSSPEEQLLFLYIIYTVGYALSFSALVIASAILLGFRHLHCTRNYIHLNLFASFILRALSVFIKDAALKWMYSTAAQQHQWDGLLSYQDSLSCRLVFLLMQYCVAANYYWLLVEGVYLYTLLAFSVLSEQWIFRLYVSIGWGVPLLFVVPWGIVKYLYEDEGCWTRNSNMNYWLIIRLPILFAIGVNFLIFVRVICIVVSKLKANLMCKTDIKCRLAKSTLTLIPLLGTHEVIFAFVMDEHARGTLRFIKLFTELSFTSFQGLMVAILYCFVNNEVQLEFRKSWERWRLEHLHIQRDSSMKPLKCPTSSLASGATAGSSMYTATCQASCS
Sequence of GLP-1R WT (P43220 24-463): as the sequence (P43220 24-463 S444A) above, with A421S counted along it
Sequence of GLP-1R S442A (P43220 24-463 S442A): as the sequence (P43220 24-463 S444A) above, with S419A, A421S counted along it
Sequence of GLP-1R_TEV_FLAG C-tail (P43220 24-431 limits assumed): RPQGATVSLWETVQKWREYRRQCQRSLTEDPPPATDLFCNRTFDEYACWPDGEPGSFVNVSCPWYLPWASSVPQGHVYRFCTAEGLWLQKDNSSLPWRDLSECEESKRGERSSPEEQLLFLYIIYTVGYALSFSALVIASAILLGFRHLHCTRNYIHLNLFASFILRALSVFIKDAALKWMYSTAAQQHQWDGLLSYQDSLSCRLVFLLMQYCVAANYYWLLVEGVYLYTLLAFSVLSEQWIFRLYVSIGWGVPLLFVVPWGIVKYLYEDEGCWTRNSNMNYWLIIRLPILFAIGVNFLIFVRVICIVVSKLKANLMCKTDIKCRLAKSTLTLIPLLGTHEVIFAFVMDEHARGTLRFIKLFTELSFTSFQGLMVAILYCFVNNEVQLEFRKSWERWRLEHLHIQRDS
Sequence of GLP-1R S445A (P43220 24-463 S445A): as the sequence (P43220 24-463 S444A) above, with A421S, S422A counted along it
Sequence of GLP-1R 3S→A (S442A/S444A/S445A) (P43220 24-463 S442A/S444A/S445A): as the sequence (P43220 24-463 S444A) above, with S419A, S422A counted along it

Emax (GCGR [1]): 120%
SMILES: CSCC[C@H](NC(=O)[C@H](CC(C)C)NC(=O)[C@H](Cc1c[nH]c2ccccc12)NC(=O)[C@H](CCC(N)=O)NC(=O)[C@@H](NC(=O)[C@H](Cc1ccccc1)NC(=O)[C@H](CC(=O)O)NC(=O)[C@H](CCC(N)=O)NC(=O)[C@H](C)NC(=O)[C@H](CCCNC(=N)N)NC(=O)[C@H](CCCNC(=N)N)NC(=O)[C@H](CO)NC(=O)[C@H](CC(=O)O)NC(=O)[C@H](CC(C)C)NC(=O)[C@H](Cc1ccc(O)cc1)NC(=O)[C@H](CCCCN)NC(=O)[C@H](CO)NC(=O)[C@H](CCCCNC(=O)CCOCCOCCOCCOCCNC(=O)CCCC[C@@H]1SC[C@@H]2NC(=O)N[C@@H]21)NC(=O)[C@H](CC(=O)O)NC(=O)[C@H](CO)NC(=O)[C@@H](NC(=O)[C@@H](O)Cc1ccccc1)[C@@H](C)O)C(C)C)C(=O)N[C@@H](CC(=O)O)C(=O)N[C@H](C(N)=O)[C@@H](C)O [Biotin-GCGR antagonist] (H-[PhLac]TSDK([PEG4-Biotin])SKYLDSRRAQDFVQWLMDT-NH2)

SMILES: CC[C@H](C)[C@H](NC(=O)[C@H](Cc1ccccc1)NC(=O)[C@@H](NC(=O)CNC(=O)[C@H](CCC(N)=O)NC(=O)C(C)(C)NC(=O)[C@@H](N)Cc1c[nH]cn1)[C@@H](C)O)C(=O)N[C@@H](CO)C(=O)N[C@@H](CC(=O)O)C(=O)N[C@@H](CCCCNC(=O)CCOCCOCCOCCOCCNC(=O)CCCC[C@@H]1SC[C@@H]2NC(=O)N[C@@H]21)C(=O)N[C@@H](CO)C(=O)N[C@@H](CCCCN)C(=O)N[C@@H](Cc1ccc(O)cc1)C(=O)N[C@@H](CC(C)C)C(=O)N[C@@H](CC(=O)O)C(=O)NC(C)(C)C(=O)N[C@@H](CCCNC(=N)N)C(=O)N[C@@H](C)C(=O)N[C@@H](C)C(=O)N[C@@H](CCC(N)=O)C(=O)N[C@@H](CC(=O)O)C(=O)N[C@@H](Cc1ccccc1)C(=O)N[C@H](C(=O)N[C@@H](CCC(N)=O)C(=O)N[C@@H](Cc1c[nH]c2ccccc12)C(=O)N[C@@H](CC(C)C)C(=O)N[C@@H](CCSC)C(=O)N[C@@H](CC(=O)O)C(=O)N[C@H](C(=O)O)[C@@H](C)O)C(C)C [Biotin-GCG]
Emax (GCGR [2]): 124%

Emax (GCGR [1]): 116%
SMILES: CCCCCCCCCCCCCCCC(=O)N[C@@H](CCC(=O)N[C@@H](CCC(=O)NCCCC[C@H](NC(=O)[C@H](CC(=O)O)NC(=O)[C@H](CO)NC(=O)[C@@H](NC(=O)[C@@H](O)Cc1ccccc1)[C@@H](C)O)C(=O)N[C@@H](CO)C(=O)N[C@@H](CCCCN)C(=O)N[C@@H](Cc1ccc(O)cc1)C(=O)N[C@@H](CC(C)C)C(=O)N[C@@H](CC(=O)O)C(=O)N[C@@H](CO)C(=O)N[C@@H](CCCNC(=N)N)C(=O)N[C@@H](CCCNC(=N)N)C(=O)N[C@@H](C)C(=O)N[C@@H](CCC(N)=O)C(=O)N[C@@H](CC(=O)O)C(=O)N[C@@H](Cc1ccccc1)C(=O)N[C@H](C(=O)N[C@@H](CCC(N)=O)C(=O)N[C@@H](Cc1c[nH]c2ccccc12)C(=O)N[C@@H](CC(C)C)C(=O)N[C@@H](CCSC)C(=O)N[C@@H](CC(=O)O)C(=O)N[C@H](C(N)=O)[C@@H](C)O)C(C)C)C(=O)O)C(=O)O [GCGR Antagonist] (H-[PhLac]TSDK([γGlu-γGlu-Palmitoyl])SKYLDSRRAQDFVQWLMDT-NH2)

Emax [3]: 130%
Emax (GLP-1R S444A): 127%
Emax (GLP-1R S442A): 116%
increase in the percentage of phosphorylated GLP-1R proteoforms (GLP-1R_TEV_FLAG C-tail): 14.5%
Emax (GLP-1R WT): 99%
Emax (GLP-1R S445A): 123%
SMILES: N#Cc1ccc(COc2cccc(C3CCN(Cc4nc5ccc(C(=O)O)cc5n4C[C@@H]4CCO4)CC3)n2)c(F)c1 [danuglipron]
